Results reported in ChEMBL document CHEMBL1144409, “Synthesis of new quinoxaline-2-carboxylate 1,4-dioxide derivatives as anti-Mycobacterium tuberculosis agents” (J Med Chem, 2005).
In brackets after ≈: the same amount, converted by molar mass.

Experiments:
[1] = Compound was tested for cytotoxicity in Vero cells; format: cell-based; conditions: Chlorocebus sabaeus
[2] = Selectivity index (ratio of IC50 and MIC) value was determined; conditions: cercopithecidae
[3] = system: Mycobacterium tuberculosis; experiment: In vitro actual minimum inhibitory concentration value of the compound was determined against Mycobacterium tuberculosis; format: functional
[4] = system: Mycobacterium tuberculosis; experiment: In vitro effective concentration of the compound causing 99%reduction in residualmycobacterium tuberculosis growth after 7 days compared to untreated control; format: functional; conditions: 168 h
[5] = system: Mycobacterium tuberculosis; experiment: In vitro effective concentration of the compound causing 90%reduction in residualmycobacterium tuberculosis growth after 7 days compared to untreated control; format: functional; conditions: 168 h
[6] = system: Mycobacterium tuberculosis; experiment: In vitro ratio of EC90 and MIC value of the compound was determined; format: functional
[7] = Compound was tested for cytotoxicity in Vero cells; Insoluble; format: cell-based, Chlorocebus sabaeus
[8] = system: Mycobacterium tuberculosis; experiment: In vitro minimum inhibitory concentration value against Mycobacterium tuberculosis H37Rv strain in alamar assay; format: functional
[9] = system: Mycobacterium tuberculosis; experiment: In vitro minimum inhibitory concentration value against Mycobacterium tuberculosis erdman strain in alamar assay; format: functional
[10] = system: Mycobacterium tuberculosis; experiment: In vitro minimum inhibitory concentration value against Mycobacterium tuberculosis H37Rv strain in bactec assay; format: functional
[11] = system: Mycobacterium tuberculosis; experiment: In vitro actual minimum inhibitory concentration value against Mycobacterium tuberculosis; format: functional
[12] = system: Mycobacterium tuberculosis; experiment: In vitro actual minimum inhibitory concentration value of the compound was determined against Mycobacterium tuberculosis H37Rv strain; Range is 0.015-0.125; format: functional

CCc1c(C(=O)OC)[n+]([O-])c2cc(OC)ccc2[n+]1[O-]
IC50 [1]: 39.9 µg/mL (≈ 144 µM)
SI [2]: 6.4
MIC [3]: 6.25 µg/mL (≈ 22.5 µM)

COC(=O)c1c(C(C)(C)C)[n+]([O-])c2ccc(Cl)cc2[n+]1[O-]
MIC [3]: > 6.25 µg/mL

C=CCc1c(C(=O)OC)[n+]([O-])c2cc(Cl)c(Cl)cc2[n+]1[O-]
IC50 [1]: 5.8 µg/mL (≈ 17.6 µM)
SI [2]: 0.93
MIC [3]: 6.25 µg/mL (≈ 19 µM)

CCc1c(C(=O)OC)[n+]([O-])c2cc(C)ccc2[n+]1[O-]
IC50 [1]: > 62.5 µg/mL
SI [2]: > 40.1
MIC [3]: 1.56 µg/mL (≈ 5.95 µM)

CCc1c(C(=O)OC)[n+]([O-])c2cc(Cl)ccc2[n+]1[O-]
IC50 [1]: > 10 µg/mL
SI [2]: > 50
MIC [3]: 0.2 µg/mL (≈ 0.708 µM)
EC99 [4]: 1.14 µg/mL
EC90 [5]: 0.46 µg/mL (≈ 1.63 µM)
Ratio [6]: 2.3

COC(=O)c1c(C(C)(C)C)[n+]([O-])c2cc(C)c(C)cc2[n+]1[O-]
MIC [3]: > 6.25 µg/mL

COC(=O)c1c(Cc2ccccc2)[n+]([O-])c2ccc(OC)cc2[n+]1[O-]
IC50 [1]: > 62.5 µg/mL
SI [2]: > 80.1
MIC [3]: 0.78 µg/mL (≈ 2.29 µM)

COC(=O)c1c(C)[n+]([O-])c2ccccc2[n+]1[O-]
IC50 [1]: > 10 µg/mL
SI [2]: > 6.41
MIC [3]: 1.56 µg/mL (≈ 6.66 µM)

CCOC(=O)COC(=O)c1c(CC)[n+]([O-])c2ccc(Cl)cc2[n+]1[O-]
IC50 [1]: 1.89 µg/mL (≈ 5.33 µM)
SI [2]: 1.2
MIC [3]: 1.56 µg/mL (≈ 4.4 µM)

COC(=O)c1c(C)[n+]([O-])c2cc(C)c(C)cc2[n+]1[O-]
IC50 [1]: > 62.5 µg/mL
SI [2]: > 20
MIC [3]: 3.13 µg/mL (≈ 11.9 µM)
EC99 [4]: 6.15 µg/mL
EC90 [5]: 1.64 µg/mL (≈ 6.25 µM)
Ratio [6]: 0.52

COC(=O)c1c(C)[n+]([O-])c2ccc(OC)cc2[n+]1[O-]
IC50 [1]: 52.6 µg/mL (≈ 199 µM)
SI [2]: 33.7
MIC [3]: 1.56 µg/mL (≈ 5.9 µM)

COC(=O)c1c(Cc2ccccc2)[n+]([O-])c2cc(C)c(C)cc2[n+]1[O-]
MIC [3]: 3.13 µg/mL (≈ 9.25 µM)
IC50 [7]: Insoluble

COC(=O)c1c(Cc2ccccc2)[n+]([O-])c2cc(F)c(F)cc2[n+]1[O-]
MIC [3]: > 6.25 µg/mL

COC(=O)c1c(C)[n+]([O-])c2cc(F)c(F)cc2[n+]1[O-]
IC50 [1]: 1.48 µg/mL (≈ 5.48 µM)
SI [2]: 3.8
MIC [3]: 0.39 µg/mL (≈ 1.44 µM)

C=CCc1c(C(=O)OC)[n+]([O-])c2cc(C)c(C)cc2[n+]1[O-]
MIC [3]: > 6.25 µg/mL

CCc1c(C(=O)OC)[n+]([O-])c2ccccc2[n+]1[O-]
IC50 [1]: 47 µg/mL (≈ 189 µM)
SI [2]: 30.1
MIC [3]: 1.56 µg/mL (≈ 6.28 µM)
EC99 [4]: 3.32 µg/mL
EC90 [5]: 0.88 µg/mL (≈ 3.54 µM)
Ratio [6]: 0.56

COC(=O)c1c(C)[n+]([O-])c2ccc(C)cc2[n+]1[O-]
IC50 [1]: > 62.5 µg/mL
SI [2]: > 40.1
MIC [3]: 1.56 µg/mL (≈ 6.28 µM)
EC99 [4]: 5.83 µg/mL
EC90 [5]: 1.94 µg/mL (≈ 7.82 µM)
Ratio [6]: 1.24

COC(=O)c1c(Cc2ccccc2)[n+]([O-])c2ccc(C)cc2[n+]1[O-]
IC50 [1]: 56 µg/mL (≈ 173 µM)
SI [2]: 144
MIC [3]: 0.39 µg/mL (≈ 1.2 µM)
EC99 [4]: 3.79 µg/mL
EC90 [5]: 1.13 µg/mL (≈ 3.48 µM)
Ratio [6]: 2.9

CCc1c(C(=O)OC)[n+]([O-])c2cc(C)c(C)cc2[n+]1[O-]
IC50 [1]: > 62.5 µg/mL
MIC [8]: 0.39 µg/mL (≈ 1.41 µM)
MIC [9]: 0.39 µg/mL (≈ 1.41 µM)
SI [2]: > 10
MIC [3]: 6.25 µg/mL (≈ 22.6 µM)
MIC [10]: 0.2 µg/mL (≈ 0.724 µM)

COC(=O)c1c(C)[n+]([O-])c2cc(Cl)c(Cl)cc2[n+]1[O-]
IC50 [1]: 1.68 µg/mL (≈ 5.54 µM)
SI [2]: 8.4
MIC [3]: 0.2 µg/mL (≈ 0.66 µM)

COC(=O)c1c(Cc2ccccc2)[n+]([O-])c2ccc(Cl)cc2[n+]1[O-]
IC50 [1]: 7.6 µg/mL (≈ 22 µM)
SI [2]: 76
MIC [3]: 0.1 µg/mL (≈ 0.29 µM)
EC99 [4]: 0.08 µg/mL
EC90 [5]: 0.0005 µg/mL (≈ 0.00145 µM)
Ratio [6]: 0.01

COC(=O)c1c(C(C)(C)C)[n+]([O-])c2ccccc2[n+]1[O-]
MIC [3]: > 6.25 µg/mL

CCc1c(C(=O)OC)[n+]([O-])c2cc(Cl)c(Cl)cc2[n+]1[O-]
IC50 [1]: 4 µg/mL (≈ 12.6 µM)
SI [2]: > 20
MIC [3]: < 0.2 µg/mL
EC99 [4]: 5.99 µg/mL
EC90 [5]: 0.63 µg/mL (≈ 1.99 µM)
Ratio [6]: >3.15

COC(=O)c1c(Cc2ccccc2)[n+]([O-])c2cc(Cl)c(Cl)cc2[n+]1[O-]
MIC [8]: ≤ 3.13 µg/mL
MIC [9]: ≤ 3.13 µg/mL
MIC [10]: 6.25 µg/mL (≈ 16.5 µM)
MIC [11]: 6.25 µg/mL (≈ 16.5 µM)

COC(=O)c1c(Cc2ccccc2)[n+]([O-])c2ccccc2[n+]1[O-]
IC50 [1]: 47 µg/mL (≈ 151 µM)
SI [2]: 470
MIC [3]: 0.1 µg/mL (≈ 0.322 µM)
EC99 [4]: > 2 µg/mL
EC90 [5]: 0.15 µg/mL (≈ 0.483 µM)
Ratio [6]: 1.5

CCOC(=O)COC(=O)c1c(CC)[n+]([O-])c2cc(Cl)c(Cl)cc2[n+]1[O-]
IC50 [1]: 1.22 µg/mL (≈ 3.13 µM)
SI [2]: 6.1
MIC [3]: 0.2 µg/mL (≈ 0.514 µM)

CO[C@H]1/C=C/O[C@@]2(C)Oc3c(C)c(O)c4c(O)c(c(/C=N/N5CCN(C)CC5)c(O)c4c3C2=O)NC(=O)/C(C)=C\C=C\[C@H](C)[C@H](O)[C@@H](C)[C@@H](O)[C@@H](C)[C@H](OC(C)=O)[C@@H]1C [RIFAMPIN]
MIC [12]: 0.125 µg/mL (≈ 0.152 µM)

COC(=O)c1c(C(C)(C)C)[n+]([O-])c2cc(Cl)c(Cl)cc2[n+]1[O-]
MIC [3]: > 6.25 µg/mL

CCc1c(C(=O)OC)[n+]([O-])c2cc(F)c(F)cc2[n+]1[O-]
IC50 [1]: 1.2 µg/mL (≈ 4.22 µM)
SI [2]: 0.77
MIC [3]: 1.56 µg/mL (≈ 5.49 µM)

COCCc1c(C(=O)OC)[n+]([O-])c2cc(Cl)c(Cl)cc2[n+]1[O-]
IC50 [1]: 4.5 µg/mL (≈ 13 µM)
SI [2]: 11.5
MIC [3]: 0.39 µg/mL (≈ 1.12 µM)
EC99 [4]: > 1.56 µg/mL
EC90 [5]: > 1.56 µg/mL
Ratio [6]: >4
